PubChem BioAssay (NCI)
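Grown in 96-well plates, cells were treated for 48 hours with each compound at five concentrations. Insufficient inhibition: endpoint recorded as highest concentration tested. Here, GI50 denotes the concentration required for 50% inhibition of growth. TGI: total growth inhibition.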

Legend:
Test in all cases: NCI-60 cell line screen, 48 h
SW-620 colon = test system: SW-620 colon
TK-10 renal = test system: TK-10 renal
K-562 leukemia = test system: K-562 leukemia
MOLT-4 leukemia = test system: MOLT-4 leukemia
SR leukemia = test system: SR leukemia
SF-295 CNS = test system: SF-295 CNS
DU-145 prostate = test system: DU-145 prostate
CCRF-CEM leukemia = test system: CCRF-CEM leukemia
NCI-H23 lung = test system: NCI-H23 lung
LOX IMVI melanoma = test system: LOX IMVI melanoma
IGROV1 ovarian = test system: IGROV1 ovarian
RPMI-8226 leukemia = test system: RPMI-8226 leukemia
MALME-3M melanoma = test system: MALME-3M melanoma
PC-3 prostate = test system: PC-3 prostate
HCT-116 colon = test system: HCT-116 colon
UACC-257 melanoma = test system: UACC-257 melanoma
NCI-H522 lung = test system: NCI-H522 lung
HOP-62 NSCLC = test system: HOP-62 NSCLC
HL-60(TB) leukemia = test system: HL-60(TB) leukemia
KM12 colon = test system: KM12 colon
MDA-MB-231 breast = test system: MDA-MB-231 breast
NCI/ADR-RES ovarian = test system: NCI/ADR-RES ovarian
SNB-19 CNS = test system: SNB-19 CNS
SK-OV-3 ovarian = test system: SK-OV-3 ovarian
HT29 colon = test system: HT29 colon
RXF 393 renal = test system: RXF 393 renal
SF-539 CNS = test system: SF-539 CNS
NCI-H226 lung = test system: NCI-H226 lung
NCI-H460 lung = test system: NCI-H460 lung

Question: Which results are given for `COc1ccccc1N(C(C)=O)C1=C(Cl)C(=O)c2ccccc2C1=O`?
Answer: GI50 (SW-620 colon): 1060 nM; TGI (SW-620 colon): 2550 nM; GI50 (TK-10 renal): 1870 nM; TGI (TK-10 renal): 3300 nM; GI50 (K-562 leukemia): 2230 nM; TGI (K-562 leukemia): 7670 nM; GI50 (MOLT-4 leukemia): 2940 nM; TGI (MOLT-4 leukemia): > 25100 nM; GI50 (SR leukemia): 1780 nM; TGI (SR leukemia): 5160 nM; GI50 (SF-295 CNS): 2380 nM; TGI (SF-295 CNS): 6500 nM; GI50 (DU-145 prostate): 3460 nM; TGI (DU-145 prostate): 12000 nM; GI50 (CCRF-CEM leukemia): 1950 nM; TGI (CCRF-CEM leukemia): 5110 nM; GI50 (NCI-H23 lung): 1650 nM; TGI (NCI-H23 lung): 6000 nM; GI50 (LOX IMVI melanoma): 2290 nM; TGI (LOX IMVI melanoma): 8080 nM; GI50 (IGROV1 ovarian): 2820 nM; TGI (IGROV1 ovarian): 10300 nM; GI50 (RPMI-8226 leukemia): 833 nM; TGI (RPMI-8226 leukemia): 3960 nM; GI50 (MALME-3M melanoma): 1660 nM; TGI (MALME-3M melanoma): 3200 nM; GI50 (PC-3 prostate): 1170 nM; TGI (PC-3 prostate): 10800 nM; GI50 (HCT-116 colon): 760 nM; TGI (HCT-116 colon): 2180 nM; GI50 (UACC-257 melanoma): 2140 nM; TGI (UACC-257 melanoma): 4390 nM; GI50 (NCI-H522 lung): 330 nM; TGI (NCI-H522 lung): 1420 nM; GI50 (HOP-62 NSCLC): 3030 nM; TGI (HOP-62 NSCLC): 12600 nM; GI50 (HL-60(TB) leukemia): 2240 nM; TGI (HL-60(TB) leukemia): 5530 nM; GI50 (KM12 colon): 1060 nM; TGI (KM12 colon): 5480 nM; GI50 (MDA-MB-231 breast): 2030 nM; TGI (MDA-MB-231 breast): 6230 nM; GI50 (NCI/ADR-RES ovarian): 2520 nM; TGI (NCI/ADR-RES ovarian): 11500 nM; GI50 (SNB-19 CNS): 3160 nM; TGI (SNB-19 CNS): > 40800 nM; GI50 (SK-OV-3 ovarian): 2460 nM; TGI (SK-OV-3 ovarian): 7330 nM; GI50 (HT29 colon): 1890 nM; TGI (HT29 colon): 4450 nM; GI50 (RXF 393 renal): 1120 nM; TGI (RXF 393 renal): 2450 nM; GI50 (SF-539 CNS): 1450 nM; TGI (SF-539 CNS): 4770 nM; GI50 (NCI-H226 lung): 1510 nM; TGI (NCI-H226 lung): 6010 nM; GI50 (NCI-H460 lung): 3170 nM; TGI (NCI-H460 lung): 12200 nM
